What was measured:
[1] = TRAP assay (quenching of ABTS+ radical cation); assay type: biochemical; details: 10 μmol compound, 5 min, absorbance 734 nm; Troxol reference
Description: The anti-oxidant activities of PB 141 were determined by the ability of this compound to react with pre-formed radical monocation of 2,2′-azinobis-(3-ethylbenzothiazoline)-6-sulfonic acid (ABTS^+). Data are representative of one of two independent experiments; n=3; *** P<0.001 versus Troxol.
The anti-oxidant activity of PB141 or PB157 was determined by the ability of these compounds to react with the pre-formed radical monocation of 2,2′-azinobis-(3-ethylbenzothiazoline)-6-sulfonic acid (ABTS^+). ABTS (1.8 mmol) was reacted overnight with potassium persulfate (0.63 mmol) in double distilled water, at room temperature in the dark, to generate the dark blue ABTS^+ radical cation. This radical cation has a maximum absorption at 734 nm. Immediately prior to the experiment, ABTS^+ was diluted with absolute ethanol to an absorbance of approximately 0.7 at 734 nm. PB141 or PB157 (10 μmol) was added to ABTS^+ (1 ml) and mixed by vortexing. The reaction was allowed to stabilize for 5 min and the absorbance was measured. The anti-oxidant activities of these compounds were determined by their ability to quench the color of the radical cation. Troxol (10 μmol) was used as reference standard.

BEAS-2B cells = assay type: cell-based
Description: To evaluate cell viability, apoptosis, and cytotoxicity, the Apo Tox-Glo Triplex assay was used according to the manufacturer's instructions (Promega, Madison, Wis.). Briefly, the BEAS-2B cells were plated at 2×10^4 cells/well in 100 μl medium in an opaque walled, clear-bottomed, 96-well plate. After 24 hr culture, they were treated for a further indicated time with different concentrations of PB141 or PB157. At the end of the culture period, 20 μl viability/cytotoxicity reagent was added to each well, mixed by orbital shaking (300 r.p.m. for 30 s) and incubated for 30 min at 37° C. Fluorescence was then measured with excitation at 400 nm and emission at 505 nm to assess cell viability, and 485 nm excitation and 520 nm emission to assess cytotoxicity; both were quantified as relative fluorescence units (RFU). Then, 100 μl Caspase-Glo 3/7 reagent was added to each well, mixed by orbital shaking (300 r.p.m. for 30 s) and incubated for 30 min at room temperature. Luminescence was measured to assess caspase activation as a marker of apoptosis and quantified as relative luminescence units. Results for PB141 and PB157 were similar.

[2] = FRAP assay (ferric reduction/anti-oxidant power); assay type: biochemical; details: 10 μmol compound, 5 min, 593 nm; Troxol reference
Description: The antioxidant activity of PB141 was determined by ferric reduction/anti-oxidant power (FRAP) assay in which the compound is reacted with ferric tripyridyltriazine complex. Data are representative of one of two independent experiments; n=3; *** P<0.001 versus Troxol.
The antioxidant activity of PB141 or PB157 was determined by ferric reduction/anti-oxidant power (FRAP) assay in which the compounds are reacted with ferric tripyridyltriazine complex. The ferric complex was prepared at room temperature by reaction of ferric chloride (16.7 mmol) and 2,4,6-trispyridyl-s-triazine (8.33 mmol) in pH 3.6 acetate buffer (0.25 M). The FRAP reagent was used immediately after preparation. PB141 or PB157 (10 μmol) was added to the FRAP reagent (1 ml) and mixed by vortexing. The reaction was allowed to stabilize for 5 min and the absorbance was measured. The antioxidant activities of these compounds were determined by the ability to reduce the ferric complex to a […] ferrous complex, monitored at 593 nm. Troxol (10 μmol) was used as reference standard.

SMILES: CC(=O)N[C@@H](CSC(c1cnccn1)C1CCCC(C(SC[C@H](NC(C)=O)C(=O)O)c2cnccn2)C1=O)C(=O)O (stereo partly shown) [PB157]
- Anti-oxidant activity (ability to quench ABTS+ radical cation) [1]: clearly demonstrated
- Cytotoxicity (BEAS-2B cells): without exhibiting cytotoxicity
- Apoptosis (caspase 3/7 activation) (BEAS-2B cells; different concentrations, data not shown): induced apoptosis
- Antioxidant activity (reduction of ferric complex) [2]: highly significant and approximately equal

From US9862690B2, “Treatment of pulmonary and other conditions” (University of Pittsburgh—of the Commonwealth System of …, priority 2013, dated 2018)
